Key:
Naive CD4+ T cells = Naive CD4+ T cells under Th17 cell polarizing conditions; type: cell-based; conditions: for number of CD4+ IL-10-secreting T cells: among Th17 differentiating cells, 4 days, FIG. 37; for number of CD4+ IL-17-secreting T cells: and rIL-6, 4 days, vs RPMI, FIG. 36
[1] = tested on: Lymph node (LN) cells from unprimed DO11.10 TCR Tg mice; test: OVA-stimulated lymph node cell culture, T cell proliferation; type: cell-based; conditions: for proliferation of the T cells that respond to the antigen: LN cells stimulated with OVA, vs control RPMI, FIG. 1; for effect on T cell responses in general: overall conclusion of Example 1 (FIGS. 1-4)
naïve CD4+ T cells = test: Naive CD4+ T cells under Treg cell generating conditions; type: cell-based; conditions: for proliferation: Treg cell generating conditions, 5 days, FIG. 39; for number of Foxp3+ Treg cells: rIL-2, with or even without rTGF-β1, 5 days, FIG. 38
[2] = tested on: EAE in C57BL/6 Rag−/− recipients; test: Adoptive transfer of CD4+ T cells from treated EAE donors into C57BL/6 Rag-/- recipients; type: in vivo, C57BL/6 Rag−/− mice
[3] = tested on: ongoing EAE in recipient mice; test: Adoptive transfer of CD4+ T cells from treated EAE donors into recipients with ongoing EAE; type: in vivo
EAE = EAE after cessation of 15 days of treatment, 45 additional days of monitoring; type: in vivo, C57BL/6 mice
From the text: The mice continued to be monitored daily for clinical signs of EAE for 45 additional days thereafter.

[4] = tested on: ongoing EAE in recipient mice; test: Adoptive transfer of DLN cells from treated EAE donors into recipients with ongoing EAE; type: in vivo
From the text: The donor DLN cells were obtained on day 17, which is the peak of disease for control mice. This protection was observed until day 28-30 when the mice were euthanized.

[5] = tested on: response to OVA in EAE-induced mice; test: EAE mice treated for 15 days, then immunized with OVA/CFA; type: in vivo, C57BL/6 mice
Description: Treatment stopped and mice were then injected with OVA/CFA (Complete Freund's Adjuvant).
Instead, the response to a new antigen that the mice are exposed to is enhanced.

[6] = mitogen-induced proliferation, delayed-type hypersensitivity, mixed lymphocyte reaction; cited from earlier work
[7] = tested on: collagen-induced arthritis (CIA); conditions: cited from earlier work
[8] = mice; cited from earlier work
[9] = oral, 50 mg/kg, beginning at onset of disease

For `C[C@]12CC[C@H](O)CC1=CC[C@@H]1[C@@H]2CC[C@@]2(C)[C@H]1CC[C@@]21CO1` [BNN-50, 17β-spiro-[5-androsten-17,2′-oxiran]-3β-ol], the “number of CD4+ IL-10-secreting T cells” value (Naive CD4+ T cells) was “significant increase”, the “number of CD4+ IL-17-secreting T cells” value (Naive CD4+ T cells) was “increase” and the “proliferation of the T cells that respond to the antigen” value (“proliferation … to the antigen” for short) [1] was “significantly decreased”. The “effect on T cell responses in general” value [1] was “immunosuppressive effect”, the proliferation (naïve CD4+ T cells) was “increased” and the “number of Foxp3+ Treg cells” value (naïve CD4+ T cells) was “significant increase”.

For `C[C@]12CC[C@H](O)CC1=CC[C@@H]1[C@@H]2CC[C@@]2(C)[C@H]1CC[C@@]21OC1CO` (stereo partly drawn) [BNN-93, 3β,21-dihydroxy-17α,20-epoxy-5-pregnene], the “number of CD4+ IL-10-secreting T cells” value (Naive CD4+ T cells) was “significant increase”, the “number of CD4+ IL-17-secreting T cells” value (Naive CD4+ T cells) was “increase” and the “proliferation … to the antigen” value [1] was “significantly decreased”. For the same compound, the “effect on T cell responses in general” value [1] was “immunosuppressive effect”, the “ex vivo proliferation to MOG35-55” value ([2]; DLN cells of Rag−/− recipients, FIG. 33a) was “substantially decreased” and the “production of IFN-γ” value ([2]; DLN cells of Rag−/− recipients, FIG. 33b) was “decreased production”. The “production of IL-17” value ([2]; DLN cells of Rag−/− recipients, FIG. 33c) was “decreased production”, the “EAE scores induced in recipients” value ([2]; after pertussis toxin injections, FIGS. 31 and 32) was “no disease” and the “mean maximum EAE score” value ([3]; CD4+ T cell transfer into recipients with ongoing EAE, FIGS. 28 and 29) was “significant decrease”. For the same compound, the “proliferation to MOG35-55 ex vivo” value ([3]; DLN cells and splenocytes of recipients, FIG. 30) was “significantly decreased”, the “protection from EAE development after cessation of treatment” value (EAE; treated 15 days from around day 13, monitored 45 additional days, FIGS. 34 and 35) was “remained protected” and the “disease score after cessation of treatment” value (EAE; treated 15 days, monitored 45 additional days, vs control mice) was “remained unchanged”. For the same compound, the recovery of recipients ([4]; DLN cell transfer, vs PBS-treated donors, FIG. 24) was “rapid recovery”, the “mean maximum disease score” value ([4]; DLN cell transfer, vs PBS-treated donors, FIG. 25) was “significant reduction” and the “EAE development in recipients” value ([4]; DLN cells of donors treated days 12-17, vs DLN cells from PBS-treated donors, FIG. 24) was “confer suppression”. For the same compound, the “ex vivo proliferation to MOG35-55” value ([4]; DLN cells of recipients, FIG. 26a) was “significantly decreased”, the “levels of supernatant IFN-γ” value ([4]; DLN cells of recipients, FIG. 26b) was “decreased levels” and the “levels of supernatant IL-17” value ([4]; DLN cells of recipients, FIG. 26c) was “decreased levels”. For the same compound, the “recruitment of CD11c+ dendritic cells” value ([4]; draining lymph nodes of recipients, FIG. 27a) was “substantially decreased”, the “recruitment of IL-17 secreting T cells” value ([4]; draining lymph nodes of recipients, FIG. 27b) was “substantially decreased” and the “recruitment of CD4+ Foxp3+ regulatory T cells” value ([4]; draining lymph nodes of recipients, FIG. 27c) was “increased”. For the same compound, the proliferation (naïve CD4+ T cells) was “increased”, the “number of Foxp3+ Treg cells” value (naïve CD4+ T cells) was “significant increase” and the “production of IFN-γ” value ([5]; after OVA/CFA immunization) was “increased”. The “T cell response to OVA ex vivo (3H-Thymidine incorporation)” value ([5]; after OVA/CFA immunization, FIG. 40) was “substantially increased”, the “EAE phenotype after end of treatment and OVA/CFA injection” value ([5]; in comparison to control mice) was “stable phenotype without any deterioration” and the “protection from EAE” value ([5]; treated 15 days from shortly after disease onset, then OVA/CFA) was “clearly protected”.

For `C[C@]12CC[C@H](O)CC1=CCC1C2CC[C@@]2(C)C1CC[C@]21O[C@H]1CO` (stereo partly drawn) [BNN-124, (20S)-3β,21-dihydroxy-17β,20-epoxy-5-pregnene], the “number of CD4+ IL-10-secreting T cells” value (Naive CD4+ T cells) was “significant increase”, the “number of CD4+ IL-17-secreting T cells” value (Naive CD4+ T cells) was “increase” and the “proliferation … to the antigen” value [1] was “significantly decreased”. For the same compound, the “effect on T cell responses in general” value [1] was “immunosuppressive effect”, the proliferation (naïve CD4+ T cells) was “increased” and the “number of Foxp3+ Treg cells” value (naïve CD4+ T cells) was “significant increase”.

For `C#C[C@]1(O)CC[C@H]2[C@@H]3[C@@H](O)C=C4C[C@@H](O)CC[C@]4(C)[C@H]3CC[C@@]21C` [HE3286], the “immune suppression in classical models” value [6] is given as “not found to be immune suppressive”, the “numbers and function of CD4+CD25+FOXp3+CD127-regulatory T cells (T reg)” value ([7]; associated with benefit) is given as “increases” and the CIA peak scores [7, 9] is given as “significantly decreased”. The “daily severity of arthritis scores” value [7, 9] was “significantly decreased” and the oral bioavailability [8] was “up to 25%”.

Reference: US20120225852A1, “USE OF STEROID COMPOUNDS” (priority 2009, published 2012)
